{"source": "patent US11260053B2", "about": "“Bile acid recycling inhibitors and satiogens for treatment of diabetes, obesity, and inflammatory gastrointestinal conditions” (Satiogen Pharmaceuticals, Inc., priority 2010, dated 2022)", "key": {"diabetic db/db mice": {"system": "diabetic db/db mice", "assay": "Oral ASBTI with DPP-IV inhibitor versus subcutaneous exenatide, blood glucose (Example 9)", "assay_type": "in vivo"}, "male db/db mice [1]": {"system": "male db/db mice", "assay": "In vivo assay for reduction in blood glucose levels (Example 7A)", "conditions": "for reduction in plasma glucose from baseline: after 6 hours, oral", "description": "Male db/db mice 6-7 weeks (approx 30 g) were fasted for 2 h. A combination of (−)-(3R,5R)-trans-3-butyl-3-ethyl-2,3,4,5-tetrahydro-7,8-dimethoxy-5-phenyl-1,4-benzothiazepine1,1-dioxide (Compound 100A) at doses of 0, 0.1, 1, 10, mg/kg in 10% of DMSO-water and 30 mg/kg sitagliptin (DPP-IV inhibitor) in a mixture of valine-pyrrolidine in water was administered orally to male db/db mice (n=7-10 per group). Blood sample (˜1 μl from tail for glucose level testing) was taken at t=−24 h, 0, 60, 180, 240, 300, 360 min and 24 h after administration."}, "GLP-1": {"system": "GLP-1", "assay": "Plasma GLP-1 levels in normal rats after oral dosing (Example 8)", "assay_type": "in vivo", "description": "12-week-old male HSD rats were fasted for 16 h and given oral dose of 0, 3, 30, 100 mg/kg of the ASBTI 1-[4-[4-[(4R,5R)-3,3-dibutyl-7-(dimethylamino)-2,3,4,5-tetrahydro-4-hydroxy-1,1-dioxido-1-benzothiepin-5-yl]phenoxy]butyl]4-aza-1-azoniabicyclo[2.2.2]octane methane sulfonate (Synthesized by Nanosyn Inc., CA, USA) or metformin (Control, 0, 3, 30, 100, 300 mg/kg) in saline and a dose of 30 mg/kg sitaglipin in a mixture of valine-pyrrolidine in water (n=5 per group). Blood samples in volume of 0.6 ml for each time point were taken from the caudal vein with a heparinized capillary tube 0, 1, 3 and 5 h after the administration of compounds and plasma GLP-1 level were determined. Aprotinin and 10 μl of DPP-IV inhibitor per ml of blood were used for blood sample preservation during 10 min centrifugation and for storage at −70° C. or below. GLP-1 (Active pM) was tested by Millipore ELISA Kits (Millipore Corporation, 290 Concord Road, Billerica, Mass.)."}, "male db/db mice [2]": {"system": "male db/db mice", "assay": "In vivo assay for reduction in blood glucose levels (Example 7B)", "conditions": "for reduction in plasma glucose from baseline: after 6 hours, oral, male db/db mice", "description": "Male db/db mice 8-9 weeks (approx 40 g) were fasted for 2 h. […] Blood sample (˜1 μl from tail for glucose level testing) was taken at t=−24 h, 0, 1, 3, 4, 5, 6 h and 24 h after administration."}, "Sprague Dawley rats [3]": {"system": "Sprague Dawley rats", "conditions": "500 mM sodium taurocholate gel, 3 mL per rectum, overnight-fasted rats, 6 hour period", "description": "Using a stainless steel dissolving vessel fitted with a propeller stirrer 1 gram of methyl cellulose is dissolved in 100 mL of purified water and stirred for 15 minutes. 5 syringes connected to gavage tubes are then each filled with 3 mL of the composition.\nThe sodium taurocholate rectal gel described above was rectally administered to 6 conscious overnight-fasted subjects (e.g., Sprague Dawley rats) and the control rectal gel without the sodium taurocholate was rectally administered to 5 conscious overnight-fasted subjects (e.g., Sprague Dawley rats). Each rat was then exposed to pre-weighed food and the cumulative consumption of the food was determined over a 6 hour period by weighing the food after 30 minutes, 60 minutes, 120 minutes, 240 minutes and 360 minutes."}, "obese diabetic humans": {"system": "obese diabetic humans", "conditions": "rectal 0.66, 2.0, 6.66, 20.0 mmoles in 20 ml 1% carboxymethyl cellulose gel, after 100 mg sitagliptin", "description": "Studies were undertaken after an overnight fast following administration (8-10 hours prior to bile salt) of 100 mg sitagliptin, a DPP-4 inhibitor that protects GLP-1 from inactivation by proteolysis. […] The taurocholic acid was administered into the rectum by syringe in a total volume of 20 ml of 1% carboxymethyl cellulose gel. Each dose was administered on a different day with at least three days between doses."}, "Sprague Dawley rats [4]": {"system": "Sprague Dawley rats", "description": "Using a stainless steel dissolving vessel fitted with a propeller stirrer 1 gram of methyl cellulose is dissolved in 100 mL of purified water and stirred for 15 minutes. 12 syringes connected to gavage tubes are then each filled with 3 mL of the composition.\nA 4×4 Latin Square design is used to monitor the effect of the different concentration of taurocholate on the food uptake of overnight-fasted Sprague Dawley rats. Each concentration is tested in triplicate with four rats used per replicate.\nThe ED50 for inhibition of food intake is obtained by plotting the normalizing the dose response for the anorectic effect of taurocholate to the control data as a log of taurocholate dose vs the percentage of control cumulative intake (FIG. 7)."}}, "note": "Read-outs that look alike come from different tables or passages of the source.", "data": [{"smiles": "CCCC[C@]1(CC)CS(=O)(=O)c2cc(OC)c(OC)cc2[C@@H](c2ccccc2)N1", "note": "(relative stereo) [Compound 100A, (−)-(3R,5R)-trans-3-butyl-3-ethyl-2,3,4,5-tetrahydro-7,8-dimethoxy-5-phenyl-1,4-benzothiazepine1,1-dioxide]", "values": [{"measurement": "reduction of plasma glucose levels", "setting": "diabetic db/db mice; 3 hours post-dose, oral 10 mg/kg in combination with 30 mg/kg sitagliptin", "result": 35, "unit": "%"}, {"measurement": "change in body weight", "setting": "male db/db mice [1]; 24 h after administration, FIG. 9", "result": "Weight loss"}, {"measurement": "plasma glucose concentrations", "setting": "male db/db mice [1]; ASBTI alone, male db/db mice, FIG. 1", "result": "lowers plasma glucose concentrations"}, {"measurement": "reduction in plasma glucose from baseline", "setting": "male db/db mice [1]; dose 01 mg/kg (so in the source) with 30 mg/kg sitagliptin, male db/db mice", "result": 5.6, "unit": "%"}, {"measurement": "reduction in plasma glucose from baseline", "setting": "male db/db mice [1]; dose 1 mg/kg with 30 mg/kg sitagliptin, male db/db mice", "result": 15, "unit": "%"}, {"measurement": "reduction in plasma glucose from baseline", "setting": "male db/db mice [1]; dose 10 mg/kg with 30 mg/kg sitagliptin, male db/db mice", "result": 42.3, "unit": "%"}, {"measurement": "elevated blood glucose levels compared to control mice treated with sitagliptin alone or vehicle", "setting": "male db/db mice [1]; single oral administration in combination with 30 mg/kg sitagliptin, FIG. 1", "result": "dose-dependent reduction"}]}, {"smiles": "CCCCC1(CCCC)CS(=O)(=O)c2ccc(N(C)C)cc2[C@@H](c2ccc(OCCCC[N+]34CCN(CC3)CC4)cc2)[C@H]1O.CS(=O)(=O)[O-]", "note": "[Compound 100B, 1-[4-[4-[(4R,5R)-3,3-dibutyl-7-(dimethylamino)-2,3,4,5-tetrahydro-4-hydroxy-1,1-dioxido-1-benzothiepin-5-yl]phenoxy]butyl]4-aza-1-azoniabicyclo[2.2.2]octane methane sulfonate salt]", "values": [{"measurement": "plasma GLP-1 levels", "setting": "GLP-1; ASBTI alone, oral 0, 3, 30, 100 mg/kg, FIG. 6, FIG. 7", "result": "elevation in GLP-1 levels in a dose-dependent manner"}, {"measurement": "plasma GLP-1 levels", "setting": "GLP-1; ASBTI in combination with 30 mg/kg sitagliptin, oral, FIG. 6, FIG. 7", "result": "elevation in GLP-1 levels in a dose-dependent manner"}, {"measurement": "blood glucose levels compared with exenatide", "setting": "diabetic db/db mice; 3 hours after dosing, oral, in combination with 30 mg/kg sitagliptin, FIG. 10", "result": "reduces blood glucose levels more than a single subcutaneous injection of 0.02 mg/kg exenatide"}, {"measurement": "change in body weight", "setting": "male db/db mice [2]; 24 h after administration, in combination with sitagliptin, FIG. 8", "result": "Weight loss"}, {"measurement": "plasma glucose levels", "setting": "male db/db mice [2]; ASBTI alone, db/db mice, FIG. 4", "result": "lowers plasma glucose levels in dose dependent manner"}, {"measurement": "reduction in plasma glucose from baseline", "setting": "male db/db mice [2]; dose 3 mg/kg with 30 mg/kg sitagliptin", "result": 5.6, "unit": "%"}, {"measurement": "reduction in plasma glucose from baseline", "setting": "male db/db mice [2]; dose 30 mg/kg with 30 mg/kg sitagliptin", "result": 15, "unit": "%"}, {"measurement": "reduction in plasma glucose from baseline", "setting": "male db/db mice [2]; dose 100 mg/kg with 30 mg/kg sitagliptin", "result": 42.3, "unit": "%"}, {"measurement": "elevated blood glucose levels compared to control mice treated with sitagliptin alone or vehicle", "setting": "male db/db mice [2]; single oral administration in combination with 30 mg/kg sitagliptin, FIG. 2", "result": "dose-dependent reduction"}]}, {"smiles": "CN(C)C(=N)N=C(N)N", "note": "[metformin, reference compound]", "values": [{"measurement": "plasma GLP-1 levels", "setting": "GLP-1; metformin in combination with 30 mg/kg sitagliptin, oral, FIG. 5", "result": "elevation in GLP-1 levels"}]}, {"smiles": "N[C@@H](CC(=O)N1CCn2c(nnc2C(F)(F)F)C1)Cc1cc(F)c(F)cc1F", "note": "[sitagliptin, (3R)-3-amino-1-[9-(trifluoromethyl)-1,4,7,8-tetrazabicyclo[4.3.0]nona-6,8-dien-4-yl]-4-(2,4,5-trifluorophenyl)butan-1-one, reference compound]", "values": [{"measurement": "reduction in plasma glucose from baseline", "setting": "male db/db mice [2]; dose 0 mg/kg of ASBTI with 30 mg/kg sitagliptin", "result": 5.5, "unit": "%"}, {"measurement": "reduction in plasma glucose from baseline", "setting": "male db/db mice [1]; dose 0 mg/kg of ASBTI with 30 mg/kg sitagliptin, male db/db mice", "result": 5.5, "unit": "%"}]}, {"smiles": "C[C@H](CCC(=O)NCCS(=O)(=O)O)[C@H]1CC[C@H]2[C@@H]3[C@H](O)C[C@@H]4C[C@H](O)CC[C@]4(C)[C@H]3C[C@H](O)[C@]12C", "note": "[taurocholate, taurocholic acid]", "values": [{"measurement": "cumulative food intake compared to gel alone", "setting": "Sprague Dawley rats [3]", "result": "reduced"}, {"measurement": "circulating GLP-1 levels", "setting": "obese diabetic humans", "result": "increase"}, {"measurement": "circulating PYY levels", "setting": "obese diabetic humans", "result": "increase"}, {"measurement": "cumulative food intake", "setting": "Sprague Dawley rats [4]; 50, 150, 500 mM taurocholate gels, 3 mL per rectum, overnight-fasted rats", "result": "dose dependently related to the quantity of taurocholate administered"}, {"measurement": "ED50 for inhibition of food intake", "setting": "Sprague Dawley rats [4]; 24 hour intake", "result": 7.2, "unit": "mmol/rat"}, {"measurement": "ED50 for inhibition of food intake", "setting": "Sprague Dawley rats [4]; at 1 hour", "result": 1.6, "unit": "mmol/rat"}, {"measurement": "ED50 for inhibition of food intake", "setting": "Sprague Dawley rats [4]; at 1 hour, 3 mL doses per rectum", "result": 528, "unit": "mM"}, {"measurement": "time for which differences in food uptake are maintained", "setting": "Sprague Dawley rats [4]; rectal taurocholate gels, rats", "result": "at least 24 hours"}]}]}
